Data reported in US20250339569A1, “CARBONIC ANHYDRASE IX LIGANDS” (priority 2021, published 2025).
Like-named read-outs stand apart in the source and are kept apart here. Starred links: 1 amine or outer side, 2 acyl side, 3 side chain; linkers in the order of their positions; H or OH if unused. Positions of bridges follow the written chain, without caps; N, C: chain ends. Non-standard residues stand in square brackets, D forms with d. Residues, ends and D or L forms follow the SMILES beside them. *: point of attachment. Phe(3-NHCO(CH2)3SO2NH2) = N[C@@H](Cc1cccc(NC(=O)CCCS(N)(=O)=O)c1)C(=O)O; DOTA = O=C(O)CN1CCN(CC(=O)O)CCN(CC(=O)*)CCN(CC(=O)O)CC1; Nip(3R) = O=C([C@@H]1CCCN([*:1])C1)[*:2]; Propanoyl(3-SO2NH2) = NS(=O)(=O)CCC(=O)*; Phe(4-NH2) = Nc1ccc(C[C@H](N)C(=O)O)cc1; mXylylene = c1cc(C[*:1])cc(C[*:2])c1; X14 = O=C([C@H]1CCCN([*:1])C1)[*:2]; X18 = NS(=O)(=O)c1ccc(C(=O)*)nc1; X1 = O=C(CN1CCN([*:1])CC1)[*:2]; X27 = NS(=O)(=O)c1ccc(C(=O)*)s1; Pip = O=C(O)[C@@H]1CCCCN1; Dap = NC[C@H](N)C(=O)O

Columns and labels:
[1] = target: T1, CAIX-expressing human HT-29 colorectal cancer cells (Homo sapiens, UniProt Q16790); assay: FACS binding assay (IC50 determination, competition with tracer 3BP-2776 or 3BP-4149); conditions: FACS binding assay, HT-29 cells, 4° C., 1 hour, read-out: pIC50 category (activity) (converted)
T1 construct: CAIX-expressing human HT-29 colorectal cancer cells; host or cells: HT-29 human colorectal cancer cells
How it was run: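 HT-29 cells in FACS buffer (PBS, 1% FCS) at 500.000 cells/ml were exposed to compounds competing with a labelled tracer, with biotinylated compounds detected by 1 μg/mL APC-streptavidin for 30 min on ice. APC/Cy5 median fluorescence was read by flow cytometry and IC50 derived by 4PL fit.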

[2] = target: T2, human carbonic anhydrase IX (hCAIX-Fc) (Homo sapiens, UniProt Q16790); assay: Surface plasmon resonance assay with hCAIX-Fc; format: binding; conditions: 25° C.; for t1/2 category (activity): SPR dissociation half-life, hCAIX-Fc; for Kd: SPR, hCAIX-Fc captured, read-out: pKD category (activity) (converted)
T2 construct: purchased SinoBliological (Sino Biological) 10107-H02H

[3] = competition with tracer 3BP-4149 (3 nM, Cy5-labeled)
[4] = competition with tracer 3BP-2776 (10 nM, biotin-labeled)

SMILES	IC50 [1, 3] [nM]	t1/2 category (activity) [2]	Kd [2] [nM]	IC50 [1, 4] [nM]
CC(C)C[C@@H]1NC(=O)[C@H](Cc2c[nH]c3ccccc23)NC(=O)[C@H](CC(=O)O)NC(=O)[C@H]2CCCN2C(=O)[C@H](CCC(=O)O)NC(=O)[C@@H](NC(=O)[C@H](Cc2ccc(O)cc2)NC(=O)CN2CCN(C(=O)CN3CCN(CC(=O)O)CCN(CC(=O)O)CCN(CC(=O)O)CC3)CC2)CSCc2cccc(c2)CSC[C@@H](C(N)=O)NC(=O)[C@H](CO)NC(=O)[C@H](Cc2c[nH]c3ccccc23)NC(=O)[C@H]([C@@H](C)O)NC1=O [3BP-4446] ({DOTA}-[X1]YCE[dP]DWLTWSC-NH2; linker 3-12 via mXylylene)	10 to 79.4	C (t1/2 between 2.1 and 5.0 minutes)	< 10	
CC(C)C[C@@H]1NC(=O)[C@H](Cc2cccc(NC(=O)CCCS(N)(=O)=O)c2)NC(=O)[C@H](CC(=O)O)NC(=O)[C@H]2CCCN2C(=O)[C@H](CCC(=O)O)NC(=O)[C@@H](NC(=O)[C@H](Cc2ccc(O)cc2)NC(=O)CN2CCN(C(=O)CN3CCN(CC(=O)O)CCN(CC(=O)O)CCN(CC(=O)O)CC3)CC2)CSCc2cccc(c2)CSC[C@@H](C(N)=O)NC(=O)[C@H](CO)NC(=O)[C@H](Cc2c[nH]c3ccccc23)NC(=O)[C@H]([C@@H](C)O)NC1=O [3BP-4448] ({DOTA}-[X1]YCE[dP]D[Phe(3-NHCO(CH2)3SO2NH2)]LTWSC-NH2; linker 3-12 via mXylylene)		A (t1/2>15.0 minutes)	< 10	< 10
CC(C)C[C@@H]1NC(=O)[C@H](Cc2cccc(NC(=O)CCCS(N)(=O)=O)c2)NC(=O)[C@H](CC(=O)O)NC(=O)[C@H]2CCCN2C(=O)[C@H](CCC(=O)O)NC(=O)[C@@H](NC(=O)[C@H](CCC(N)=O)NC(=O)CN2CCN(CC(=O)O)CCN(CC(=O)O)CCN(CC(=O)O)CC2)CSCc2cccc(c2)CSC[C@@H](C(N)=O)NC(=O)[C@H](CO)NC(=O)[C@H](Cc2c[nH]c3ccccc23)NC(=O)[C@H]([C@@H](C)O)NC1=O [3BP-4453]		A (t1/2>15.0 minutes)	< 10	< 10
CC(C)C[C@@H]1NC(=O)[C@H](Cc2cccc(NC(=O)CCCS(N)(=O)=O)c2)NC(=O)[C@H](CC(=O)O)NC(=O)[C@H]2CCCN2C(=O)[C@H](CCC(=O)O)NC(=O)[C@@H](NC(=O)[C@H](Cc2ccc(O)cc2)NC(=O)[C@H]2CCCN(C(=O)CN3CCN(CC(=O)O)CCN(CC(=O)O)CCN(CC(=O)O)CC3)C2)CSCc2cccc(c2)CSC[C@@H](C(N)=O)NC(=O)[C@H](CO)NC(=O)[C@H](Cc2c[nH]c3ccccc23)NC(=O)[C@H]([C@@H](C)O)NC1=O [3BP-4454] ({DOTA}-[X14]YCE[dP]D[Phe(3-NHCO(CH2)3SO2NH2)]LTWSC-NH2; linker 3-12 via mXylylene)	10 to 79.4	A (t1/2>15.0 minutes)	< 10	
CC(C)C[C@@H]1NC(=O)[C@H](Cc2cccc(NC(=O)CCCS(N)(=O)=O)c2)NC(=O)[C@H](CC(=O)O)NC(=O)[C@H]2CCCN2C(=O)[C@H](CCC(=O)O)NC(=O)[C@@H](NC(=O)[C@H](Cc2ccc(O)cc2)NC(=O)[C@@H]2CCCN(C(=O)CN3CCN(CC(=O)O)CCN(CC(=O)O)CCN(CC(=O)O)CC3)C2)CSCc2cccc(c2)CSC[C@@H](C(N)=O)NC(=O)[C@H](CO)NC(=O)[C@H](Cc2c[nH]c3ccccc23)NC(=O)[C@H]([C@@H](C)O)NC1=O [3BP-4455] ({DOTA}-[Nip(3R)]YCE[dP]D[Phe(3-NHCO(CH2)3SO2NH2)]LTWSC-NH2; linker 3-12 via mXylylene)		A (t1/2>15.0 minutes)	< 10	< 10
CC(C)C[C@@H]1NC(=O)[C@H](Cc2cccc(NC(=O)CCCS(N)(=O)=O)c2)NC(=O)[C@H](CC(=O)O)NC(=O)[C@H]2CCCN2C(=O)[C@H](CCC(=O)O)NC(=O)[C@@H](NC(=O)[C@H](Cc2ccc(O)cc2)NC(=O)[C@@H]2CCCCN2C(=O)CN2CCN(CC(=O)O)CCN(CC(=O)O)CCN(CC(=O)O)CC2)CSCc2cccc(c2)CSC[C@@H](C(N)=O)NC(=O)[C@H](CO)NC(=O)[C@H](Cc2c[nH]c3ccccc23)NC(=O)[C@H]([C@@H](C)O)NC1=O [3BP-4456] ({DOTA}-[Pip]YCE[dP]D[Phe(3-NHCO(CH2)3SO2NH2)]LTWSC-NH2; linker 3-12 via mXylylene)	10 to 79.4	A (t1/2>15.0 minutes)	< 10	

The next lines start with the values.

IC50 [1, 3] [nM]	t1/2 category (activity) [2]	Kd [2] [nM]	IC50 [1, 4] [nM]	SMILES
< 10	B (t1/2 between 5.1 and 15.0 minutes)	< 10		CC(C)C[C@@H]1NC(=O)[C@H](Cc2ccc(NC(=O)c3ccc(S(N)(=O)=O)s3)cc2)NC(=O)[C@H](CC(=O)O)NC(=O)[C@H]2CCCN2C(=O)[C@H](CCC(=O)O)NC(=O)[C@@H](NC(=O)[C@H](Cc2ccc(O)cc2)NC(=O)CN2CCN(C(=O)CN3CCN(CC(=O)O)CCN(CC(=O)O)CCN(CC(=O)O)CC3)CC2)CSCc2cccc(c2)CSC[C@@H](C(N)=O)NC(=O)[C@H](CO)NC(=O)[C@H](Cc2c[nH]c3ccccc23)NC(=O)[C@H]([C@@H](C)O)NC1=O [3BP-4457] ({DOTA}-[X1]YCE[dP]D[Phe(4-NH2)](X27)LTWSC-NH2; linker 3-12 via mXylylene)
10 to 79.4	C (t1/2 between 2.1 and 5.0 minutes)	< 10		CC(C)C[C@@H]1NC(=O)[C@H](Cc2ccc(NC(=O)c3ccc(S(N)(=O)=O)cn3)cc2)NC(=O)[C@H](CC(=O)O)NC(=O)[C@H]2CCCN2C(=O)[C@H](CCC(=O)O)NC(=O)[C@@H](NC(=O)[C@H](CCC(N)=O)NC(=O)CN2CCN(C(=O)CN3CCN(CC(=O)O)CCN(CC(=O)O)CCN(CC(=O)O)CC3)CC2)CSCc2cccc(c2)CSC[C@@H](C(N)=O)NC(=O)[C@H](CO)NC(=O)[C@H](Cc2c[nH]c3ccccc23)NC(=O)[C@H]([C@@H](C)O)NC1=O [3BP-4480] ({DOTA}-[X1]QCE[dP]D[Phe(4-NH2)](X18)LTWSC-NH2; linker 3-12 via mXylylene)
< 10	A (t1/2>15.0 minutes)	< 10		CC(C)C[C@@H]1NC(=O)[C@H](Cc2cccc(NC(=O)CCCS(N)(=O)=O)c2)NC(=O)[C@H](CC(=O)O)NC(=O)[C@H]2CCCN2C(=O)[C@H](CCC(=O)O)NC(=O)[C@@H]2CSCc3cccc(c3)CSC[C@@H](C(N)=O)NC(=O)[C@H](CNC(=O)C[C@H](NC(=O)CN3CCN(CC(=O)O)CCN(CC(=O)O)CCN(CC(=O)O)CC3)C(=O)N2)NC(=O)[C@H](Cc2c[nH]c3ccccc23)NC(=O)[C@H]([C@@H](C)O)NC1=O [3BP-4488] ({DOTA}-DCE[dP]D[Phe(3-NHCO(CH2)3SO2NH2)]LTW[Dap]C-NH2; lactam 1-10; linker 2-11 via mXylylene)
< 10	A (t1/2>15.0 minutes)	< 10		CC(C)C[C@@H]1NC(=O)[C@H](Cc2ccc(NC(=O)CCS(N)(=O)=O)cc2)NC(=O)[C@H](CC(=O)O)NC(=O)[C@H]2CCCN2C(=O)[C@H](CCC(=O)O)NC(=O)[C@@H]2CSCc3cccc(c3)CSC[C@@H](C(N)=O)NC(=O)[C@H](CNC(=O)C[C@H](NC(=O)CN3CCN(CC(=O)O)CCN(CC(=O)O)CCN(CC(=O)O)CC3)C(=O)N2)NC(=O)[C@H](Cc2c[nH]c3ccccc23)NC(=O)[C@H]([C@@H](C)O)NC1=O [3BP-4489] ({DOTA}-DCE[dP]D[Phe(4-NH2)](Propanoyl(3-SO2NH2))LTW[Dap]C-NH2; lactam 1-10; linker 2-11 via mXylylene)
	A (t1/2>15.0 minutes)	< 10	10 to 79.4	CC(C)C[C@@H]1NC(=O)[C@H](Cc2cccc(NC(=O)CCCS(N)(=O)=O)c2)NC(=O)[C@H](CC(=O)O)NC(=O)[C@H]2CCCN2C(=O)[C@H](CCC(=O)O)NC(=O)[C@@H]2CSCc3cccc(c3)CSC[C@@H](C(N)=O)NC(=O)[C@H](CNC(=O)C[C@H](NC(=O)CN3CCN(C(=O)CN4CCN(CC(=O)O)CCN(CC(=O)O)CCN(CC(=O)O)CC4)CC3)C(=O)N2)NC(=O)[C@H](Cc2c[nH]c3ccccc23)NC(=O)[C@H]([C@@H](C)O)NC1=O [3BP-4497] ({DOTA}-[X1]DCE[dP]D[Phe(3-NHCO(CH2)3SO2NH2)]LTW[Dap]C-NH2; lactam 2-11; linker 3-12 via mXylylene)
10 to 79.4	A (t1/2>15.0 minutes)	< 10		CC(C)C[C@@H]1NC(=O)[C@H](Cc2ccc(NC(=O)CCS(N)(=O)=O)cc2)NC(=O)[C@H](CC(=O)O)NC(=O)[C@H]2CCCN2C(=O)[C@H](CCC(=O)O)NC(=O)[C@@H]2CSCc3cccc(c3)CSC[C@@H](C(N)=O)NC(=O)[C@H](CNC(=O)C[C@H](NC(=O)CN3CCN(C(=O)CN4CCN(CC(=O)O)CCN(CC(=O)O)CCN(CC(=O)O)CC4)CC3)C(=O)N2)NC(=O)[C@H](Cc2c[nH]c3ccccc23)NC(=O)[C@H]([C@@H](C)O)NC1=O [3BP-4498] ({DOTA}-[X1]DCE[dP]D[Phe(4-NH2)](Propanoyl(3-SO2NH2))LTW[Dap]C-NH2; lactam 2-11; linker 3-12 via mXylylene)
	A (t1/2>15.0 minutes)	< 10	< 10	CC(C)C[C@@H]1NC(=O)[C@H](Cc2ccc(NC(=O)CCS(N)(=O)=O)cc2)NC(=O)[C@H](CC(=O)O)NC(=O)[C@H]2CCCN2C(=O)[C@H](CCC(=O)O)NC(=O)[C@@H](NC(=O)[C@H](CCC(N)=O)NC(=O)CN2CCN(C(=O)CN3CCN(CC(=O)O)CCN(CC(=O)O)CCN(CC(=O)O)CC3)CC2)CSCc2cccc(c2)CSC[C@@H](C(N)=O)NC(=O)[C@H](CO)NC(=O)[C@H](Cc2c[nH]c3ccccc23)NC(=O)[C@H]([C@@H](C)O)NC1=O [3BP-4500] ({DOTA}-[X1]QCE[dP]D[Phe(4-NH2)](Propanoyl(3-SO2NH2))LTWSC-NH2; linker 3-12 via mXylylene)
